The values below come from PubChem BioAssay AID248 (DTP/NCI, 2004).

The subject of the assay is L1210 leukemia ip in BDF1 mice, survival T/C. The assay can be described thus: NCI In Vivo Anticancer Drug Screen. Data for tumor model L1210 Leukemia (intraperitoneal) in B6D2F1 (BDF1) mice. The conditions noted are these: endpoint: mean survival time, higher = longer survival. The gist of the method:
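In this screen, tumor-bearing mice given compound are compared to those given vehicle, and their survival values are reported as a treated-to-control quotient.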

[1] abbreviates: dose: 100.0 mg/kg/injection, schedule: Q04DX002 (ip), vehicle: Klucel (hydroxypropylcellulose) (HPC).
The mark [2] stands for this setting: dose: 200.0 mg/kg/injection, schedule: Q04DX002 (ip), vehicle: Klucel (hydroxypropylcellulose) (HPC).
Where [3] appears, read: dose: 400.0 mg/kg/injection, schedule: Q04DX002 (ip), vehicle: Klucel (hydroxypropylcellulose) (HPC).
Setting [4] is: dose: 75.0 mg/kg/injection, schedule: Q01DX001 (ip), vehicle: saline.
The mark [5] stands for this setting: dose: 400.0 mg/kg/injection, schedule: Q04DX002 (ip), vehicle: saline with Tween-80.
Setting [6] is: dose: 100.0 mg/kg/injection, schedule: Q04DX003 (ip), vehicle: Klucel (hydroxypropylcellulose) (HPC).
Where [7] appears, read: dose: 50.0 mg/kg/injection, schedule: Q04DX003 (ip), vehicle: Klucel (hydroxypropylcellulose) (HPC).
Where [8] appears, read: dose: 200.0 mg/kg/injection, schedule: Q04DX003 (ip), vehicle: Klucel (hydroxypropylcellulose) (HPC).
Where [9] appears, read: dose: 50.0 mg/kg/injection, schedule: Q01DX009 (ip), vehicle: Klucel (hydroxypropylcellulose) (HPC).
Setting [10] is: dose: 100.0 mg/kg/injection, schedule: Q01DX009 (ip), vehicle: Klucel (hydroxypropylcellulose) (HPC).

Where “and” joins values, the source holds several entries; their conditions need not be identical. Equal values may be shown once. Inconclusive results and toxic doses are left out.

Consider `CCN(O)C(N)=O`, for which the T/C runs as follows: (dose: 34.5 mg/kg/injection, schedule: Q01DX009 (ip), vehicle: saline) 107 % of control; (dose: 52.0 mg/kg/injection, schedule: Q01DX009 (ip), vehicle: saline) 111 % of control; (dose: 62.0 mg/kg/injection, schedule: Q03HX024 (ip), vehicle: saline) 101 % of control; (dose: 78.0 mg/kg/injection, schedule: Q01DX009 (ip), vehicle: saline) 113 % of control; (dose: 117.0 mg/kg/injection, schedule: Q01DX009 (ip), vehicle: saline) 110 % of control and 122 % of control (2×); (dose: 125.0 mg/kg/injection, schedule: Q03HX024 (ip), vehicle: saline) 98 % of control. In addition, the T/C runs as follows: (dose: 178.0 mg/kg/injection, schedule: Q01DX009 (ip), vehicle: saline) 112 % of control; (dose: 600.0 mg/kg/injection, schedule: Q01DX009 (ip), vehicle: saline) 166 % of control and 167 % of control.
With `O=c1[nH]nc(SC2CCCCC2)c(=O)[nH]1`, the T/C runs as follows: (dose: 100.0 mg/kg/injection, schedule: Q01DX001 (ip), vehicle: saline) 108 % of control; (dose: 200.0 mg/kg/injection, schedule: Q01DX001 (ip), vehicle: saline) 108 % of control; (dose: 400.0 mg/kg/injection, schedule: Q01DX001 (ip), vehicle: saline) 106 % of control.
For `CCCNC(=O)Oc1ccc2ccccc2c1`, the T/C (dose: 100.0 mg/kg/injection, schedule: Q01DX001 (ip), vehicle: other) was 103 % of control; the T/C (dose: 100.0 mg/kg/injection, schedule: Q01DX009 (ip), vehicle: other) is 93 % of control and 100 % of control; the T/C under setting [1] is 95 % of control; the T/C (dose: 100.0 mg/kg/injection, schedule: Q04DX002 (ip), vehicle: other) was 100 % of control and 101 % of control; the T/C (dose: 200.0 mg/kg/injection, schedule: Q01DX001 (ip), vehicle: other) is 94 % of control; the T/C (dose: 200.0 mg/kg/injection, schedule: Q01DX009 (ip), vehicle: other) was 94 % of control and 116 % of control. Further, the T/C was 103 % of control under setting [2]; 93 % of control and 95 % of control (dose: 200.0 mg/kg/injection, schedule: Q04DX002 (ip), vehicle: other); 101 % of control (dose: 400.0 mg/kg/injection, schedule: Q01DX001 (ip), vehicle: other); 93 % of control and 94 % of control (dose: 400.0 mg/kg/injection, schedule: Q01DX009 (ip), vehicle: other); 100 % of control under setting [3]; 93 % of control and 96 % of control (dose: 400.0 mg/kg/injection, schedule: Q04DX002 (ip), vehicle: other).
On to `Cn1cnc(N)c1C(=N)[Se]`, for which the T/C was 86 % of control (dose: 6.25 mg/kg/injection, schedule: Q01DX009 (ip), vehicle: water); 108 % of control (dose: 12.5 mg/kg/injection, schedule: Q04DX003 (ip), vehicle: water); 95 % of control (dose: 25.0 mg/kg/injection, schedule: Q04DX003 (ip), vehicle: water).
With `CC(=O)C1C(N2CC2)CC2C3CCC4=CC(=O)CCC4(C)C3CCC21C` (stereo unspecified), the T/C reads like this: (dose: 50.0 mg/kg/injection, schedule: Q01DX001 (sc), vehicle: steriod suspending solution) 101 % of control; (dose: 100.0 mg/kg/injection, schedule: Q01DX001 (sc), vehicle: steriod suspending solution) 104 % of control; (dose: 200.0 mg/kg/injection, schedule: Q01DX001 (sc), vehicle: steriod suspending solution) 101 % of control.
With `C[N+](C)(C)CC1CCCCC1`, under setting [4], the T/C is 103 % of control.
Consider `Cc1cccc(NC(=S)N2CCCCC2)c1`, for which the T/C was 100 % of control (dose: 100.0 mg/kg/injection, schedule: Q04DX002 (ip), vehicle: saline with Tween-80); 100 % of control (dose: 200.0 mg/kg/injection, schedule: Q04DX002 (ip), vehicle: saline with Tween-80); 100 % of control under setting [5].
For the molecule `CCCCCCCCCCCCCCCCOc1ccc(CC)cc1`, the T/C under setting [6] was 91 % of control.
Regarding `Nc1cc(C(=O)Nc2ccc(C3=NCCCN3)cc2)ccc1C(=O)Nc1ccc(C2=NCCCN2)cc1`, the T/C was 97 % of control (dose: 7.5 mg/kg/injection, schedule: Q01DX Z (oral), vehicle: saline); 93 % of control (dose: 15.0 mg/kg/injection, schedule: Q01DX Z (ip), vehicle: saline); 96 % of control (dose: 15.0 mg/kg/injection, schedule: Q01DX Z (oral), vehicle: saline); 97 % of control (dose: 30.0 mg/kg/injection, schedule: Q01DX Z (oral), vehicle: saline); 103 % of control (dose: 60.0 mg/kg/injection, schedule: Q01DX Z (oral), vehicle: saline).
As for `O=c1cc(NCc2cccc(Cl)c2)[nH]c(=O)[nH]1`, the T/C runs as follows: (dose: 100.0 mg/kg/injection, schedule: Q01DX001 (ip), vehicle: saline with Tween-80) 91 % of control; (dose: 200.0 mg/kg/injection, schedule: Q01DX001 (ip), vehicle: saline with Tween-80) 86 % of control; (dose: 400.0 mg/kg/injection, schedule: Q01DX001 (ip), vehicle: saline with Tween-80) 89 % of control.
Consider `O=C(c1ccc(Br)cc1)C1SC2(C(=O)c3ccc(Br)cc3)SC(C(=O)c3ccc(Br)cc3)C(C(=O)c3ccc(Br)cc3)SC2(C(=O)c2ccc(Br)cc2)SC1C(=O)c1ccc(Br)cc1` (stereo unspecified), for which the T/C runs as follows: under setting [4], 100 % of control; (dose: 150.0 mg/kg/injection, schedule: Q01DX001 (ip), vehicle: saline) 94 % of control; (dose: 300.0 mg/kg/injection, schedule: Q01DX001 (ip), vehicle: saline) 94 % of control.
`ClC1=C(Cl)C2(Cl)C3(Cl)C(Cl)=C(Cl)C(Cl)(C3c3ccccc3)C2(Cl)C1c1ccccc1` (stereo unspecified): the T/C by setting is: under setting [7], 94 % of control; (dose: 100.0 mg/kg/injection, schedule: Q01DX009 (ip), vehicle: saline sonified) 96 % of control; under setting [6], 97 % of control; (dose: 200.0 mg/kg/injection, schedule: Q01DX009 (ip), vehicle: saline sonified) 96 % of control; under setting [8], 89 % of control; (dose: 400.0 mg/kg/injection, schedule: Q01DX009 (ip), vehicle: saline sonified) 91 % of control.
For the molecule `CCOC(=O)C12CCCC1=CC(=O)CC2` (stereo unspecified), the T/C is 107 % of control under setting [1], 121 % of control under setting [2] and 104 % of control under setting [3].
`O=C(O)c1c(Cl)c(Cl)c(Cl)c(C(=O)O)c1Cl`: the T/C under setting [9] was 98 % of control; the T/C under setting [10] was 97 % of control; the T/C under setting [6] was 93 % of control; the T/C (dose: 200.0 mg/kg/injection, schedule: Q01DX009 (ip), vehicle: Klucel (hydroxypropylcellulose) (HPC)) was 98 % of control; the T/C under setting [8] is 91 % of control.
As for `CN1CCC(=C2c3ccccc3C(O)c3ccccc32)CC1` (stereo unspecified), the T/C is, setting by setting: (dose: 3.12 mg/kg/injection, schedule: Q01DX009 (ip), vehicle: Klucel (hydroxypropylcellulose) (HPC)) 98 % of control; (dose: 6.25 mg/kg/injection, schedule: Q01DX009 (ip), vehicle: Klucel (hydroxypropylcellulose) (HPC)) 96 % of control; (dose: 12.5 mg/kg/injection, schedule: Q01DX009 (ip), vehicle: Klucel (hydroxypropylcellulose) (HPC)) 93 % of control; (dose: 25.0 mg/kg/injection, schedule: Q04DX003 (ip), vehicle: Klucel (hydroxypropylcellulose) (HPC)) 98 % of control; under setting [9], 93 % of control; under setting [7], 98 % of control.
`CCCCSP(Oc1ccccc1)SCCCC`: the T/C under setting [10] was 89 % of control.
Turning to `S=C(CC(C(=S)N1CCOCC1)N1CCOCC1)N1CCOCC1` (stereo unspecified), the T/C is, setting by setting: (dose: 25.6 mg/kg/injection, schedule: Q04DX002 (ip), vehicle: saline with Tween-80) 98 % of control; (dose: 64.0 mg/kg/injection, schedule: Q04DX002 (ip), vehicle: saline with Tween-80) 102 % of control; (dose: 100.0 mg/kg/injection, schedule: Q04DX003 (ip), vehicle: saline with Tween-80) 98 % of control; (dose: 160.0 mg/kg/injection, schedule: Q04DX002 (ip), vehicle: saline with Tween-80) 87 % of control; (dose: 200.0 mg/kg/injection, schedule: Q04DX003 (ip), vehicle: saline with Tween-80) 104 % of control; under setting [5], 98 % of control. The T/C (dose: 400.0 mg/kg/injection, schedule: Q04DX003 (ip), vehicle: saline with Tween-80) was 101 % of control.
`N#CC(c1ccccc1)N1CCOCC1` (stereo unspecified): the T/C reads like this: under setting [6], 91 % of control; under setting [8], 96 % of control; (dose: 400.0 mg/kg/injection, schedule: Q04DX003 (ip), vehicle: Klucel (hydroxypropylcellulose) (HPC)) 95 % of control.
